system: PABPC1 PABC; assay type: binding, human; settings: DMS-BM library, bait PABPC1 PABC, prey ATXN2, TLNPNAKEFNPRSF(averaged) over the two overlapping peptides; F = wild type, row aa = residue at this position

| Substance | DMS-derived PSSM value (averaged), position F14 |
| --- | --- |
| TLNPNAKEFNPRSF(averaged) F14H (TLNPNAKEFNPRSH) | 0.06346 |
| TLNPNAKEFNPRSF(averaged) F14I (TLNPNAKEFNPRSI) | 0.0374 |
| TLNPNAKEFNPRSF(averaged) F14K (TLNPNAKEFNPRSK) | 0.01179 |
| TLNPNAKEFNPRSF(averaged) F14L (TLNPNAKEFNPRSL) | 0.193 |
| TLNPNAKEFNPRSF(averaged) F14M (TLNPNAKEFNPRSM) | 0.1425 |
| TLNPNAKEFNPRSF(averaged) F14N (TLNPNAKEFNPRSN) | 0.05683 |
| TLNPNAKEFNPRSF(averaged) F14P (TLNPNAKEFNPRSP) | 0.03538 |
| TLNPNAKEFNPRSF(averaged) F14Q (TLNPNAKEFNPRSQ) | 0.06013 |
| TLNPNAKEFNPRSF(averaged) F14R (TLNPNAKEFNPRSR) | 0.0001414 |
| TLNPNAKEFNPRSF(averaged) F14S (TLNPNAKEFNPRSS) | 0.01539 |
| TLNPNAKEFNPRSF(averaged) F14T (TLNPNAKEFNPRST) | 0.01392 |
| TLNPNAKEFNPRSF(averaged) F14V (TLNPNAKEFNPRSV) | 0.12 |
| TLNPNAKEFNPRSF(averaged) F14W (TLNPNAKEFNPRSW) | 0.01444 |
| TLNPNAKEFNPRSF(averaged) F14Y (TLNPNAKEFNPRSY) | 0.08672 |

same assay, conditions: DMS-BM library, bait PABPC1 PABC, prey ATXN2, TLNPNAKEFNPRSF(averaged) over the two overlapping peptides; K = wild type, row aa = residue at this position

| Substance | DMS-derived PSSM value (averaged), position K7 |
| --- | --- |
| TLNPNAKEFNPRSF(averaged) K7A (TLNPNAAEFNPRSF) | 0.1204 |
| TLNPNAKEFNPRSF(averaged) K7D (TLNPNADEFNPRSF) | 0.01005 |
| TLNPNAKEFNPRSF(averaged) K7E (TLNPNAEEFNPRSF) | 0.01581 |
| TLNPNAKEFNPRSF(averaged) K7F (TLNPNAFEFNPRSF) | 0.04105 |
| TLNPNAKEFNPRSF(averaged) K7G (TLNPNAGEFNPRSF) | 0.008693 |
| TLNPNAKEFNPRSF(averaged) K7H (TLNPNAHEFNPRSF) | 0.03669 |
| TLNPNAKEFNPRSF(averaged) K7I (TLNPNAIEFNPRSF) | 0.2038 |
| TLNPNAKEFNPRSF(averaged) K7L (TLNPNALEFNPRSF) | 0.03789 |
| TLNPNAKEFNPRSF(averaged) K7M (TLNPNAMEFNPRSF) | 0.05548 |
| TLNPNAKEFNPRSF(averaged) K7N (TLNPNANEFNPRSF) | 0.09977 |
| TLNPNAKEFNPRSF(averaged) K7P (TLNPNAPEFNPRSF) | 0.005399 |
| TLNPNAKEFNPRSF(averaged) K7Q (TLNPNAQEFNPRSF) | 0.01764 |
| TLNPNAKEFNPRSF(averaged) K7R (TLNPNAREFNPRSF) | 0.01712 |
| TLNPNAKEFNPRSF(averaged) K7S (TLNPNASEFNPRSF) | 0.03571 |
| TLNPNAKEFNPRSF(averaged) K7T (TLNPNATEFNPRSF) | 0.01485 |
| TLNPNAKEFNPRSF(averaged) K7V (TLNPNAVEFNPRSF) | 0.003972 |
| TLNPNAKEFNPRSF(averaged) K7W (TLNPNAWEFNPRSF) | 0.01767 |
| TLNPNAKEFNPRSF(averaged) K7Y (TLNPNAYEFNPRSF) | 0.2476 |

same assay, conditions: DMS-BM library, bait PABPC1 PABC, prey ATXN2, TLNPNAKEFNPRSF(averaged) over the two overlapping peptides; L = wild type, row aa = residue at this position

| Substance | DMS-derived PSSM value (averaged), position L2 |
| --- | --- |
| TLNPNAKEFNPRSF(averaged) L2A (TANPNAKEFNPRSF) | 0 |
| TLNPNAKEFNPRSF(averaged) L2D (TDNPNAKEFNPRSF) | 0 |
| TLNPNAKEFNPRSF(averaged) L2E (TENPNAKEFNPRSF) | 0.04453 |
| TLNPNAKEFNPRSF(averaged) L2F (TFNPNAKEFNPRSF) | 0.05162 |
| TLNPNAKEFNPRSF(averaged) L2G (TGNPNAKEFNPRSF) | 0 |
| TLNPNAKEFNPRSF(averaged) L2H (THNPNAKEFNPRSF) | 0 |
| TLNPNAKEFNPRSF(averaged) L2I (TINPNAKEFNPRSF) | 0.0008035 |
| TLNPNAKEFNPRSF(averaged) L2K (TKNPNAKEFNPRSF) | 0.0007818 |
| TLNPNAKEFNPRSF(averaged) L2M (TMNPNAKEFNPRSF) | 0.2157 |
| TLNPNAKEFNPRSF(averaged) L2N (TNNPNAKEFNPRSF) | 0 |
| TLNPNAKEFNPRSF(averaged) L2P (TPNPNAKEFNPRSF) | 0.01878 |
| TLNPNAKEFNPRSF(averaged) L2Q (TQNPNAKEFNPRSF) | 0 |
| TLNPNAKEFNPRSF(averaged) L2R (TRNPNAKEFNPRSF) | 0 |
| TLNPNAKEFNPRSF(averaged) L2S (TSNPNAKEFNPRSF) | 0 |
| TLNPNAKEFNPRSF(averaged) L2T (TTNPNAKEFNPRSF) | 0 |
| TLNPNAKEFNPRSF(averaged) L2V (TVNPNAKEFNPRSF) | 0.005447 |
| TLNPNAKEFNPRSF(averaged) L2W (TWNPNAKEFNPRSF) | 0.07274 |
| TLNPNAKEFNPRSF(averaged) L2Y (TYNPNAKEFNPRSF) | 0.0552 |

same assay, conditions: DMS-BM library, bait PABPC1 PABC, prey ATXN2, TLNPNAKEFNPRSF(averaged) over the two overlapping peptides; N = wild type, row aa = residue at this position

| Substance | DMS-derived PSSM value (averaged), position N3 | DMS-derived PSSM value (averaged), position N5 |
| --- | --- | --- |
| TLNPNAKEFNPRSF(averaged) N3A (TLAPNAKEFNPRSF) | 0 | – |
| TLNPNAKEFNPRSF(averaged) N3D (TLDPNAKEFNPRSF) | 0.0826 | – |
| TLNPNAKEFNPRSF(averaged) N3E (TLEPNAKEFNPRSF) | 0 | – |
| TLNPNAKEFNPRSF(averaged) N3F (TLFPNAKEFNPRSF) | 0 | – |
| TLNPNAKEFNPRSF(averaged) N3G (TLGPNAKEFNPRSF) | 0 | – |
| TLNPNAKEFNPRSF(averaged) N3H (TLHPNAKEFNPRSF) | 0 | – |
| TLNPNAKEFNPRSF(averaged) N3I (TLIPNAKEFNPRSF) | 0 | – |
| TLNPNAKEFNPRSF(averaged) N3K (TLKPNAKEFNPRSF) | 0 | – |
| TLNPNAKEFNPRSF(averaged) N3L (TLLPNAKEFNPRSF) | 0 | – |
| TLNPNAKEFNPRSF(averaged) N3M (TLMPNAKEFNPRSF) | 0 | – |
| TLNPNAKEFNPRSF(averaged) N3P (TLPPNAKEFNPRSF) | 0 | – |
| TLNPNAKEFNPRSF(averaged) N3Q (TLQPNAKEFNPRSF) | 0.0275 | – |
| TLNPNAKEFNPRSF(averaged) N3R (TLRPNAKEFNPRSF) | 0.012 | – |
| TLNPNAKEFNPRSF(averaged) N3S (TLSPNAKEFNPRSF) | 0.2635 | – |
| TLNPNAKEFNPRSF(averaged) N3T (TLTPNAKEFNPRSF) | 0.009966 | – |
| TLNPNAKEFNPRSF(averaged) N3V (TLVPNAKEFNPRSF) | 0 | – |
| TLNPNAKEFNPRSF(averaged) N3W (TLWPNAKEFNPRSF) | 0 | – |
| TLNPNAKEFNPRSF(averaged) N3Y (TLYPNAKEFNPRSF) | 0.00806 | – |

| Substance | DMS-derived PSSM value (averaged), position N3 | DMS-derived PSSM value (averaged), position N5 |
| --- | --- | --- |
| TLNPNAKEFNPRSF(averaged) N5A (TLNPAAKEFNPRSF) | – | 0.00733 |
| TLNPNAKEFNPRSF(averaged) N5D (TLNPDAKEFNPRSF) | – | 0.03885 |
| TLNPNAKEFNPRSF(averaged) N5E (TLNPEAKEFNPRSF) | – | 0.01598 |
| TLNPNAKEFNPRSF(averaged) N5F (TLNPFAKEFNPRSF) | – | 0.03844 |
| TLNPNAKEFNPRSF(averaged) N5G (TLNPGAKEFNPRSF) | – | 0.006922 |
| TLNPNAKEFNPRSF(averaged) N5H (TLNPHAKEFNPRSF) | – | 0.03609 |
| TLNPNAKEFNPRSF(averaged) N5I (TLNPIAKEFNPRSF) | – | 0.2839 |
| TLNPNAKEFNPRSF(averaged) N5K (TLNPKAKEFNPRSF) | – | 0.009917 |
| TLNPNAKEFNPRSF(averaged) N5L (TLNPLAKEFNPRSF) | – | 0.05209 |
| TLNPNAKEFNPRSF(averaged) N5M (TLNPMAKEFNPRSF) | – | 0.3686 |
| TLNPNAKEFNPRSF(averaged) N5P (TLNPPAKEFNPRSF) | – | 4.119e-5 |
| TLNPNAKEFNPRSF(averaged) N5Q (TLNPQAKEFNPRSF) | – | 0.02375 |
| TLNPNAKEFNPRSF(averaged) N5R (TLNPRAKEFNPRSF) | – | 0.004628 |
| TLNPNAKEFNPRSF(averaged) N5S (TLNPSAKEFNPRSF) | – | 0.02321 |
| TLNPNAKEFNPRSF(averaged) N5T (TLNPTAKEFNPRSF) | – | 0.01041 |
| TLNPNAKEFNPRSF(averaged) N5V (TLNPVAKEFNPRSF) | – | 0.05544 |
| TLNPNAKEFNPRSF(averaged) N5W (TLNPWAKEFNPRSF) | – | 0.0006294 |

Reference: article PMC12102759 (Protein Science : A Publication of the Protein Society, 2025)
